Assay results as given in patent publication US20260327217A1, “THIAZOLE DERIVATIVES AS TAU AGGREGATION INHIBITORS” (WisTa Laboratories Ltd., priority 2022, published 2026).
Entries after “also recorded” stand apart in the source; their conditions may differ. Where a name gives a salt, the structure may show the parent alone. Read-outs that look alike come from different tables or passages of the source.

Tests used:
[1] = biological target: T1, full-length tau (T40; htau40 isoform) / truncated tau (12-kDa fragment) in 3T6 fibroblast cells (Homo sapiens, UniProt P10636); experiment: cellular tau aggregation inhibition assay (truncated 12-kDa tau / full-length T40 band ratio on immunoblots); assay type: cell-based; details: for activity at 2 µM / activity at 20 µM: single concentration test, vs untreated cells, ~1.0 negative, <0.5 positive inhibitor, read-out: Truncated tau/T40 ratio (n = 3); for activity at 20 µM: tested at 20 μM
T1 construct: fibroblast cells (3T6) express full-length tau; PHF-core tau fragment (12-kDa fragment); expressed in transfected cells; host or cells: 3T6 fibroblast cells
T1 sequence (P10636 1-441 isoform P10636-8): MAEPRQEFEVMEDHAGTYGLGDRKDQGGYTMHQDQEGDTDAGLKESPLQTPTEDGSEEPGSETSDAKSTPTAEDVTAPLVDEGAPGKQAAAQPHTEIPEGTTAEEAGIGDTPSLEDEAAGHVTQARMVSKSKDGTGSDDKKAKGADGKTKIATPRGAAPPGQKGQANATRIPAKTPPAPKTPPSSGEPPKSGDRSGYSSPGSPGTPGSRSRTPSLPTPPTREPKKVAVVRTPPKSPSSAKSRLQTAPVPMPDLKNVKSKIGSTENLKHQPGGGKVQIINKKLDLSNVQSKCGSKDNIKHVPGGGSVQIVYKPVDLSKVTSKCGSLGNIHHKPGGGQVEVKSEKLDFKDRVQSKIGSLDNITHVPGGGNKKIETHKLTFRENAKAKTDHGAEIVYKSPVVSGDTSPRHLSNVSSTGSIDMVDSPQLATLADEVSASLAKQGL
Experimental: A cell-based tau aggregation assay was performed as described previously. The process is described in more detail in WO 02/055720. In essence, fibroblast cells (3T6) express full-length tau (“T40”; the htau40 isoform) under control of an inducible promotor, and low constitutive levels of the PHF-core tau fragment (12-kDa fragment). When T40 expression is induced, it undergoes aggregation-dependent truncation within the cell, N-terminally at approximately amino acid residue 295 and C-terminally at approximately residue 390, thereby producing higher levels of the 12-kDa PHF-core domain fragment. Production of the 12-kDa fragment can be blocked in a dose-dependent manner by tau-aggregation inhibitors. Indeed, the quantitation of inhibitory activity of compounds with respect to proteolytic generation of the 12-kDa fragment within cells can be described entirely in terms of the same parameters which describe inhibition of tau-tau binding in vitro. That is, the extent of proteolytic generation of the 12-kDa fragment within cells is determined entirely by the extent to tau-tau binding through the repeat domain.
[…] MTC was included as a reference tau aggregation inhibitor. For single concentration tests. The ratio of the quantity of both of the protein bands at different concentrations of TAI is measured, to correct for the level of expression of full-length tau and for cell density, particularly at high concentration of TAIs.
The inhibitory ratio (IR) is calculated by the equation:
Where IR^x=inhibitory ratio for compound at x mM; S=signal on immunoblot (mean) for truncated tau (trunc. tau) or full-length tau (full tau) bands for compound at 0 or x mM. A ratio of 1.0 indicates no effect, whereas values decreasing from 1.0 indicate increasing inhibitory action. A curve is generated for different concentrations and the EC50 value for the TAI is defined as the concentration at which the ratio of truncated tau: full-length tau is 50% of that ratio measured in the absence of TAI; this is determined graphically.
The concentration at which there is 50% inhibition of the 12-kDa band relative to T40 (referred to as the EC50 value) was calculated from a graph of the protein band ratios relative to those observed in untreated cells.

[2] = toxicity in cells (lactate dehydrogenase assay, 24 hrs); assay type: cell-based; details: mouse, 3t6 fibroblasts; concentration at which 50% of cells are killed; 24 hrs exposure; read-out: LD50
Experimental: Toxicity of the compounds described herein was assessed using the fibroblast cells used in the cell-based assay described above to assess EC50. Toxicity was measured by cell numbers after 24 hrs exposure to the compound using a lactate dehydrogenase assay kit TOX-7 (Sigma Biosciences) according to the manufacturer's instructions after lysis of remaining cells. Alternatively, a kit from Promega UK (CytoTox 96) was used, again according to the manufacturer's instructions. LD50 is determined as the concentration of compound at which 50% of cells are killed.

[3] = biological target: T2, truncated tau (residues 297-390; dGA) / dGAE (residues 297-391), tau-tau binding (Homo sapiens, UniProt P10636); experiment: in vitro cell-free tau-tau binding assay (B50); details: concentration required to inhibit tau-tau binding by 50%
T2 construct: truncated tau (residues 297-390; dGA); another truncated tau species (residues 297-391; dGAE)
T2 sequence (P10636 614-708): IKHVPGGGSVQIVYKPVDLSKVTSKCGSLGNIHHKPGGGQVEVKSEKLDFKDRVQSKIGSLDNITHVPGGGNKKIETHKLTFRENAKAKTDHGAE
Source text: This is described in detail in WO 96/30766 and in [25]. Briefly, a fragment of tau corresponding to the core repeat domain, which has been adsorbed to a solid-phase substrate, is able to capture soluble, full-length tau and bind tau with high affinity. This association confers stability against proteolytic digestion of the aggregated tau molecules. The process is self-propagating and can be blocked selectively by prototype pharmaceutical agents.
More specifically, truncated tau (residues 297-390; dGA) diluted in carbonate buffer (pH 9.6) was bound to the assay plate, and another truncated tau species (residues 297-391; dGAE) was added in the aqueous phase. The aqueous phase binding buffer contained 0.05% Tween-20 and 1% gelatine in phosphate-buffered saline (pH 7.4). Bound dGAE was detected using mAb 423 that recognises a Glu-391 dependent epitope that is absent from the solid-phase dGA.
The concentration of compound required to inhibit the tau-tau binding by 50% is referred to as the B50 value.

dGAE = biological target: T3, dGAE (Homo sapiens, UniProt P10636); experiment: solution-phase sandwich ELISA of dGAE assembly (scAb epitope occlusion); assay type: biochemical; details: 100 μM dGAE, 500 μM inhibitor, 24 h assembly; for assembly-dependent occlusion of epitopes: CA4, CE2, 1G2 and 1D12 epitopes; for 1G2 epitope availability / immunoreactivity: scAb 1G2
T3 construct: HMT or Compound 9 added
T3 sequence (P10636 614-708): as above
Experimental: Recombinant dGAE was produced in a bacterial expression system and assembled in the presence of 10 mM DTT by incubation at 37° C. with agitation for 24 h, as described previously. For testing the pharmacological activity, assembly reactions were performed with 100 μM dGAE and 500 μM tau aggregation inhibitor (Compound 9 or HMT) in Protein Lobind tubes (Eppendorf). Compound 9 was dissolved in DMSO (final 0.5%) and HMT in 10 mM phosphate buffer (PB) supplemented with 10 mM DTT. Control tubes with dGAE+DTT in PB and dGAE+DTT in 0.5% DMSO were also set up to allow for comparison of the extent of aggregation. Following a 24 h assembly reaction, the contents from each tube were mixed by pipetting and samples removed for the immunodetection of exposed epitopes using a solution-phase sandwich ELISA.
Ninety-six well Nunc Maxisorp plates were pre-coated with mAb 423 (10 μg/ml), which specifically recognises tau that is C-terminally truncated at Glu391 in the Pronase-resistant PHF core, washed three times with PBS containing 0.1% Tween 20 (PBST) and then blocked with 2% dried milk (Marvel) in PBS. Doubling dilutions of dGAE assembly samples were added from starting concentrations of 10 μg/ml in PBS and incubated for 1 h at 37° C. Bound tau was then detected using scAbs (10 μg/ml) and incubated for 1 h at 37° C. Anti-human C kappa HRP-conjugated secondary antibody was diluted 1:1,000 in 2% dried milk in PBS and incubated for 1 h at 37° C. Pierce 1-Step Ultra TMB-ELISA Substrate Solution was used to develop the reaction which was subsequently stopped with the addition of 1 M H2SO4. Absorbance was measured at 450 nm.

[4] = biological target: T1, full-length tau (T40; htau40 isoform) / truncated tau (12-kDa fragment) in 3T6 fibroblast cells; details: previously reported [4, 13]; read-out: EC50 in the cell assay; cited from earlier work
[5] = both AD and frontotemporal dementia; cited from earlier work
[6] = full assay, concentration at which truncated tau:full-length tau ratio is 50% of that without TAI, mean for replicates, NE = no effect, read-out: EC50

CS(=O)(=O)Nc1nc(C(=O)NCc2ccc[nH]2)cs1 [Compound 1]
activity at 2 µM ([1]; >2.0 aggregation enhanced): 501 ± 40.4% | CC50 at 24 h [2]: 247 ± 16 µM

Cn1cccc1CNC(=O)c1csc(NS(C)(=O)=O)n1 [Compound 2]
activity at 2 µM ([1]; >2.0 aggregation enhanced): 86.4 ± 5.9% | CC50 at 24 h [2]: 253 ± 40 µM

CS(=O)(=O)Nc1nc(C(=O)NCc2cc3ccccc3[nH]2)cs1 [Compound 3]
activity at 2 µM ([1]; >2.0 aggregation enhanced): 228 ± 44.9% | CC50 at 24 h [2]: 212 ± 14 µM

CS(=O)(=O)Nc1nc(C(=O)NCc2nc3cc(Cl)ccc3[nH]2)cs1 [Compound 4]
activity at 2 µM ([1]; >2.0 aggregation enhanced): 480 ± 114% | CC50 at 24 h [2]: 264 ± 27 µM

CS(=O)(=O)Nc1nc(C(=O)NCc2cc(-c3ccccc3)[nH]n2)cs1 [Compound 5]
activity at 2 µM ([1]; >2.0 aggregation enhanced): 72.7 ± 11.3% | CC50 at 24 h [2]: 252 ± 23 µM

CC(C)(C)CCNC(=O)c1csc(NS(C)(=O)=O)n1 [Compound 6]
activity at 2 µM ([1]; >2.0 aggregation enhanced): 88.8 ± 5.7% | CC50 at 24 h [2]: 217 ± 2.7 µM

CN(c1nc(C(=O)NCc2ccc[nH]2)cs1)S(C)(=O)=O [Compound 7]
activity at 2 µM ([1]; >2.0 aggregation enhanced): 44.4 ± 20.8% | CC50 at 24 h [2]: 216 ± 46 µM

CN(c1nc(C(=O)NCc2cccn2C)cs1)S(C)(=O)=O [Compound 8]
activity at 2 µM ([1]; >2.0 aggregation enhanced): 7.8 ± 1.4% | CC50 at 24 h [2]: 204 ± 39 µM

CN(c1nc(C(=O)NCc2cc(-c3ccccc3)[nH]n2)cs1)S(C)(=O)=O [Compound 9]
IC50 [3]: > 500 µM | assembly-dependent occlusion of epitopes (dGAE): Epitope exposure was less complete | 1G2 epitope availability / immunoreactivity (dGAE): comparable to HMT | exposure of the CA4 and 1D12 epitopes (dGAE; scAbs CA4 and 1D12): only partial exposure | EC50 [1, 6]: 4.82 µM | activity in cell-based aggregation assay (in words) ([1]; qualitative statement): lower potency | activity at 2 µM ([1]; tested at 2 μM): 26.6 ± 6.1% | EC50 ([1]; single experiment, FIG. 2, read-out: EC50 (50% inhibition of the lower 12-kDa band)): 3.65 µM | CC50 at 24 h [2]: 80.1 ± 45 µM

CN(c1nc(C(=O)NCCC(C)(C)C)cs1)S(C)(=O)=O [Compound 10]
EC50 [1, 6]: 29 µM | activity at 2 µM ([1]; >2.0 aggregation enhanced): 49.6 ± 9.6% | CC50 at 24 h [2]: 191 ± 26 µM

Cn1cccc1CNC(=O)c1csc(NS(=O)(=O)CCO)n1 [Compound 11]
activity at 2 µM ([1]; >2.0 aggregation enhanced): 91.7 ± 18.8% | CC50 at 24 h [2]: 222 ± 35 µM

O=C(NCc1nc2cc(Cl)ccc2[nH]1)c1csc(NS(=O)(=O)CCO)n1 [Compound 12]
activity at 20 µM [1]: 101 ± 8.8% | CC50 at 24 h [2]: 197 ± 11.9 µM

O=C(NCc1cc(-c2ccccc2)[nH]n1)c1csc(NS(=O)(=O)CCO)n1 [Compound 13]
activity at 20 µM [1]: 112 ± 16.2% | CC50 at 24 h [2]: 197 ± 8.1 µM

CC(C)(C)CCNC(=O)c1csc(NS(=O)(=O)CCO)n1 [Compound 14]
EC50 [1, 6]: 3.7 µM | activity at 2 µM ([1]; tested at 2 μM): 38.1 ± 14.6% | CC50 at 24 h [2]: 263 ± 39 µM

O=C(NCc1ccc[nH]1)c1csc(NS(=O)(=O)CF)n1 [Compound 15]
activity at 2 µM ([1]; >2.0 aggregation enhanced): 120 ± 25.7% | CC50 at 24 h [2]: 221 ± 35 µM

Cn1cccc1CNC(=O)c1csc(NS(=O)(=O)CF)n1 [Compound 16]
activity at 20 µM [1]: 62.8 ± 5.1% | CC50 at 24 h [2]: 236 ± 25 µM

O=C(NCc1cc2ccccc2[nH]1)c1csc(NS(=O)(=O)CF)n1 [Compound 17]
activity at 2 µM ([1]; tested at 2 μM): 53.2 ± 15% | CC50 at 24 h [2]: 228 ± 40 µM

O=C(NCc1nc2ccc(Cl)cc2[nH]1)c1csc(NS(=O)(=O)CF)n1 [Compound 18]
activity at 2 µM ([1]; >2.0 aggregation enhanced): 14.1 ± 3.9% | CC50 at 24 h [2]: 225 ± 38 µM

O=C(NCc1cc(-c2ccccc2)[nH]n1)c1csc(NS(=O)(=O)CF)n1 [Compound 19]
activity at 2 µM ([1]; >2.0 aggregation enhanced): 197 ± 94.6% | CC50 at 24 h [2]: 231 ± 38 µM

CC(C)(C)CCNC(=O)c1csc(NS(=O)(=O)CF)n1 [Compound 20]
activity at 2 µM ([1]; >2.0 aggregation enhanced): 80.3 ± 42.4% | CC50 at 24 h [2]: 186 ± 13 µM

CNS(=O)(=O)Nc1nc(C(=O)NCc2cc3ccccc3[nH]2)cs1 [Compound 21]
activity at 2 µM ([1]; >2.0 aggregation enhanced): 217 ± 85.6% | CC50 at 24 h [2]: 227 ± 30 µM

CNS(=O)(=O)Nc1nc(C(=O)NCc2nc3cc(Cl)ccc3[nH]2)cs1 [Compound 22]
activity at 2 µM ([1]; >2.0 aggregation enhanced): 136 ± 59.1% | CC50 at 24 h [2]: 228 ± 36 µM

CNS(=O)(=O)Nc1nc(C(=O)NCc2cc(-c3ccccc3)[nH]n2)cs1 [Compound 23]
activity at 2 µM ([1]; >2.0 aggregation enhanced): 98.5 ± 10.1% | CC50 at 24 h [2]: 226 ± 40 µM

CNS(=O)(=O)Nc1nc(C(=O)NCCC(C)(C)C)cs1 [Compound 24]
activity at 2 µM ([1]; >2.0 aggregation enhanced): 349 ± 106% | CC50 at 24 h [2]: 235 ± 44 µM

O=C(NCc1nc2cc(Cl)ccc2[nH]1)c1csc(NS(=O)(=O)c2c[nH]c3ccccc23)n1 [Compound 25]
IC50 [3]: 612 µM | activity at 20 µM [1]: 91.1 ± 10% | CC50 at 24 h [2]: 202 ± 9.3 µM

O=C(NCc1cc(-c2ccccc2)[nH]n1)c1csc(NS(=O)(=O)c2c[nH]c3ccccc23)n1 [Compound 26]
IC50 [3]: 616 µM | activity at 20 µM [1]: 132 ± 8.4% | CC50 at 24 h [2]: 188 ± 11 µM

CN(C)c1ccc2c(c1)Sc1cc(N(C)C)ccc1N2 [HMT, Hydromethylthionine, reference compound]
assembly-dependent occlusion of epitopes (dGAE): assembly-dependent occlusion of these epitopes did not occur | 1G2 epitope availability / immunoreactivity (dGAE): remained partially occluded | CE2 epitope availability / immunoreactivity (dGAE; scAb CE2): became more available in the HMT-treated sample than in the soluble pre-assembly sample; also recorded: prevented the conformational changes in the CE2 epitope responsible for early loss of immunoreactivity | EC50 [4]: 0.6 µM

CN(C)c1ccc2c(c1)Sc1cc(N(C)C)ccc1N2 [HMTM, Hydromethylthionine mesylate]
pharmacological activity on clinical decline and brain atrophy [5]: exposure-dependent pharmacological activity on clinical decline and brain atrophy

CN(C)c1ccc2nc3ccc(N(C)C)cc3[s+]c2c1.[Cl-] [MT, reference compound]
tau aggregation level, % of that measured in its absence ([1]; MT at 1 μM): 9.6%
